Where two headings read alike, the source gives them in different places.
Tested on: primary rat mixed cortical cells
Experiment: In vitro myelination assay (MBP positive myelin strands, fold myelin pixels above background)
Format: cell-based
Details: Rattus norvegicus; for fold induction at 1 µM: 1.0 μM compound; for fold induction at 10 µM: 10.0 μM compound
Procedure, shortened: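 Read-out is total MBP-positive myelin strand pixels per well, detected by custom ridge-tracing software and reported as fold over untreated baseline. Primary P1 rat mixed cortical cells received compound (1.0 or 10.0 μM) for 14 days, with medium half-replaced on days 6 and 10. Standard deviation was taken across all replicates.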

[1] = relative to baseline of no added compound, read-out: Fold myelin pixels above background, 1.0 μM
[2] = relative to baseline of no added compound, read-out: Fold myelin pixels above background, 10.0 μM
[3] = relative to baseline of no added compound, read-out: Fold myelin pixels above background
[4] = read-out: Fold myelin pixels above background relative to baseline of no added compound

Compound	fold induction at 1 µM [1]	fold induction at 10 µM [2]	fold induction at 1 µM [3]	fold induction at 10 µM [3]	also measured
Cc1cc(Nc2ncn(-c3cc(F)cc(F)c3)n2)cc(N2CCN(C)C(=O)C2)c1 [Compound 360, 4-[3-[[1-(3,5-difluorophenyl)-1,2,4-triazol-3-yl]amino]-5-methyl-phenyl]-1-methyl-piperazin-2-one]	10 to 100	10 to 100	–	–	–
Cc1cc(Nc2ncn(-c3cc(F)cc(N4CC[C@@H](F)C4)c3)n2)cc(N2CCN(C3COC3)CC2)c1 [Compound 467, 1-[3-fluoro-5-[(3R)-3-fluoropyrrolidin-1-yl]phenyl]-N-[3-methyl-5-[4-(oxetan-3-yl)piperazin-1-yl]phenyl]-1,2,4-triazol-3-amine]	–	–	100 to 1000	10 to 100	–
Cc1cc(Nc2ncn(-c3ccc(F)c(F)c3)n2)cc(N2CCC(C3COC3)CC2)c1 [Compound 169, 1-(3,4-difluorophenyl)-N-[3-methyl-5-[4-(oxetan-3-yl)-1-piperidyl]phenyl]-1,2,4-triazol-3-amine]	10 to 100	1 to 10	–	–	–
Cc1cc(Nc2ncn(-c3ccccc3)n2)cc(N2CCN(C3COC3)CC2)c1 [Compound 118, N-[3-methyl-5-[4-(oxetan-3-yl)piperazin-1-yl]phenyl]-1-phenyl-1,2,4-triazol-3-amine]	100 to 1000	10 to 100	–	–	–
Cc1cc(Nc2ncn(-c3ccccc3)n2)cc(N2C[C@H]3CCN(C)[C@H]3C2)c1 [Compound 369, N-[3-[(3aR,6aR)-1-methyl-2,3,3a,4,6,6a-hexahydropyrrolo[2,3-c]pyrrol-5-yl]-5-methyl-phenyl]-l-phenyl-1,2,4-triazol-3-amine]	1000 to 10000	≤ 1	–	–	–
Cc1cc(Nc2ncn(-c3cccc(F)c3)n2)cc(N2CC(N3CCOCC3)C2)c1 [Compound 721, 1-(3-fluorophenyl)-N-[3-methyl-5-(3-morpholinoazetidin-1-yl)phenyl]-1,2,4-triazol-3-amine]	–	–	10 to 100	≤ 1	–
Cc1cc(Nc2ncn(-c3ccccc3)n2)cc(OC2CCN(C3COC3)CC2)c1 [Compound 410, N-[3-methyl-5-[[1-(oxetan-3-yl)-4-piperidyl]oxy]phenyl]-1-phenyl-1,2,4-triazol-3-amine]	–	–	10 to 100	≤ 1	–
CCC1CCCN1c1cc(F)cc(-n2cnc(Nc3cc(C)cc(N4CCN(C5COC5)CC4)c3)n2)c1 (stereo not shown) [Compound 103, 1-[3-(2-ethylpyrrolidin-1-yl)-5-fluoro-phenyl]-N-[3-methyl-5-[4-(oxetan-3-yl)piperazin-1-yl]phenyl]-1,2,4-triazol-3-amine]	100 to 1000	≤ 1	–	–	–
CCc1cc(Nc2ncn(-c3cc(F)cc(F)c3)n2)cc(N2CC(N3CCOCC3)C2)c1 [Compound 173, 1-(3,5-difluorophenyl)-N-[3-ethyl-5-(3-morpholinoazetidin-1-yl)phenyl]-1,2,4-triazol-3-amine]	100 to 1000	10 to 100	–	–	–
Fc1cc(Nc2ncn(-c3ccc(F)cc3F)n2)cc(N2CCCOCC2)c1 [Compound 343, 1-(2,4-difluorophenyl)-N-[3-fluoro-5-(1,4-oxazepan-4-yl)phenyl]-1,2,4-triazol-3-amine]	≤ 1	100 to 1000	–	–	–
c1cnc(-n2cnc(Nc3cc(C4CC4)cc(N4CC(N5CCOCC5)C4)c3)n2)cn1 [Compound 539, N-[3-cyclopropyl-5-(3-morpholinoazetidin-1-yl)phenyl]-1-pyrazin-2-yl-1,2,4-triazol-3-amine]	–	–	10 to 100	10 to 100	–
Cc1cc(Nc2ncn(-c3ccccc3)n2)cc(C2CCNC2)c1 (stereo not shown) [Compound 39, N-(3-methyl-5-pyrrolidin-3-yl-phenyl)-1-phenyl-1,2,4-triazol-3-amine]	1000 to 10000	≤ 1	–	–	–
Cc1cc(Nc2ncn(-c3cc(F)cc(F)c3)n2)nc(N2CC3(CCOC3)C2)c1 [Compound 570, N-[1-(3,5-difluorophenyl)-1,2,4-triazol-3-yl]-4-methyl-6-(7-oxa-2-azaspiro[3.4]octan-2-yl)pyridin-2-amine]	–	–	≤ 1	1 to 10	–
Fc1cc(Nc2ncn(-c3cccc(C(F)F)c3)n2)cc(N2CCN(C3COC3)CC2)c1 [Compound 794, 1-[3-(difluoromethyl)phenyl]-N-[3-fluoro-5-[4-(oxetan-3-yl)piperazin-1-yl]phenyl]-1,2,4-triazol-3-amine]	–	–	–	–	fold induction at 1 µM [4]: 1 to 10; fold induction at 10 µM [4]: ≤ 1
Fc1cc(Nc2ncn(-c3cccc(F)c3)n2)cc(N2CCCOCC2)c1 [Compound 166, N-[3-fluoro-5-(1,4-oxazepan-4-yl)phenyl]-1-(3-fluorophenyl)-1,2,4-triazol-3-amine]	100 to 1000	10 to 100	–	–	–
Cc1cc(Nc2ncn(-c3ccc(F)c(F)c3)n2)cc(OCCN2CCOCC2)c1 [Compound 845, 1-(3,4-difluorophenyl)-N-[3-methyl-5-(2-morpholinoethoxy)phenyl]-1,2,4-triazol-3-amine]	–	–	–	–	fold induction at 1 µM [4]: 10 to 100; fold induction at 10 µM [4]: 1 to 10
Fc1cc(F)cc(-n2cnc(Nc3cc(C4COC4)cc(N4CCN(C5COC5)CC4)c3)n2)c1 [Compound 313, 1-(3,5-difluorophenyl)-N-[3-(oxetan-3-yl)-5-[4-(oxetan-3-yl)piperazin-1-yl]phenyl]-1,2,4-triazol-3-amine]	1 to 10	100 to 1000	–	–	–
COc1c(F)cc(-n2cnc(Nc3cc(C)cc(N4CC(N5CCOCC5)C4)c3)n2)cc1F [Compound 782, 1-(3,5-difluoro-4-methoxy-phenyl)-N-[3-methyl-5-(3-morpholinoazetidin-1-yl)phenyl]-1,2,4-triazol-3-amine]	–	–	10 to 100	1 to 10	–
CC(=O)N1CCCC(c2cc(C)cc(Nc3ncn(-c4cc(F)cc(F)c4)n3)c2)C1 (stereo not shown) [Compound 266, 1-[3-[3-[[1-(3,5-difluorophenyl)-1,2,4-triazol-3-yl]amino]-5-methyl-phenyl]-1-piperidyl]ethanone]	10 to 100	100 to 1000	–	–	–
Cc1cc(Nc2ncn(-c3ccccc3)n2)cc(N2CCN(c3ccccc3F)CC2)c1 [Compound 455, N-[3-[4-(2-fluorophenyl)piperazin-1-yl]-5-methyl-phenyl]-1-phenyl-1,2,4-triazol-3-amine]	–	–	≤ 1	10 to 100	–
CCc1cc(Nc2ncn(-c3ccc(F)c(C)c3)n2)cc(N2CCN(C3COC3)CC2)c1 [Compound 829, N-[3-ethyl-5-[4-(oxetan-3-yl)piperazin-1-yl]phenyl]-1-(4-fluoro-3-methyl-phenyl)-1,2,4-triazol-3-amine]	–	–	–	–	fold induction at 1 µM [4]: 1 to 10; fold induction at 10 µM [4]: ≤ 1
Cc1cc(Nc2ncn(-c3cnccn3)n2)cc(N2CCCN(C3COC3)CC2)c1 [Compound 818, N-[3-methyl-5-[4-(oxetan-3-yl)-1,4-diazepan-1-yl]phenyl]-1-pyrazin-2-yl-1,2,4-triazol-3-amine]	–	–	–	–	fold induction at 1 µM [4]: 10 to 100; fold induction at 10 µM [4]: 100 to 1000
Cc1cc(Nc2ncn(-c3cc(F)cc(F)c3)n2)cc(N2C[C@@H]3C[C@H]2CN3C2CC2)c1 [Compound 78, N-[3-[(1S,4S)-2-cyclopropyl-2,5-diazabicyclo[2.2.1]heptan-5-yl]-5-methyl-phenyl]-1-(3,5-difluorophenyl)-1,2,4-triazol-3-amine]	100 to 1000	≤ 1	–	–	–
